Experimental data from PubChem BioAssay AID179 (DTP/NCI, 2004).
Active and inactive are the calls of the source.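 How the source made its calls: active means compounds giving half or more protection of infected cells from virus-caused growth loss, again on retest; inactive means the rest.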 Where a SMILES comes first, the peptide text is derived from it. [ ]: non-standard residue; d: D form. The star is where a group is joined. Nle = CCCC[CH](N)C(=O)O; Cbz = O=C(OCc1ccccc1)*; Boc = CC(C)(C)OC(=O)*; OBn = c1ccc(CO*)cc1

Tested on: CEM cells HIV-1 protection, formazan growth assay
Experiment: NCI AIDS Antiviral Assay
Conditions: for IC50: measured here: growth of uninfected CEM cells
Summary of the method: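 Steps: treat uninfected and HIV-1-infected human CEM cells at five drug levels; quantify growth by soluble formazan; retest any compound reaching 50% protection; classify actives from the retest.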

Structure (SMILES) | EC50 | IC50 | outcome
Cc1cc(C)c(-c2c(O)c(O)c(-c3ccccc3)c3ccccc23)c(C)c1 | > 200 µM | 7.76 µM | –
CCOC(=O)NC(NC1=NCCS1)(C(=O)OCC)C(F)(F)F (configuration not stated) | > 200 µM | 191 µM | –
CC(C)(C)[Si](C)(C)OC1C(n2ccc(=O)[nH]c2=O)OC(COC(c2ccccc2)(c2ccccc2)c2ccccc2)C1(CC#N)Sc1ccccc1 (configuration not stated) | > 200 µM | > 200 µM | –
CC(C)(CN(Cc1ccccc1)Cc1ccccc1)[N+](=O)[O-] | – | – | inactive
CC1(C)NC(=O)[C@]2(C[C@@H](OC(=O)c3ccccc3)C=C2C=O)O1 | > 200 µM | 2.45 µM | –
CC(C)C(NC(=O)C(Cc1ccccc1)NC(=O)OC(C)(C)C)C(=O)NCC(=O)OCc1ccccc1 (stereo not drawn) (Boc-Phe-Val-Gly-OBn; configuration not given here) | > 200 µM | 10.7 µM | –
N#Cc1ccc(-c2nc3c(N)ncnc3o2)cc1 | > 200 µM | > 200 µM | –
Cc1nsnc1CCO | > 1740 µM | > 1740 µM | –
CCCCCCCCCCCCCCC(O)C[N+](C)(CCO)CCO (configuration not stated) | > 200 µM | 1.1 µM | –
Cc1ccc(C2=Nc3ccccc3SC(c3cccc([N+](=O)[O-])c3)C2)cc1 (configuration not stated) | > 33.9 µM | 6.17 µM | –
N#CC(c1ccc(O)cc1)N1CCN(C(C#N)c2ccc(O)cc2)CC1 (configuration not stated) | > 200 µM | > 200 µM | –
O=S(=O)(O)c1ccc(N=Nc2ccc(N=Nc3cccc4ccccc34)c(S(=O)(=O)O)c2)cc1 | > 50.1 µM | > 50.1 µM | –
CC(=O)NS(=O)(=O)c1ccc(NC(=O)COC(=O)c2cccc3c(=O)c4ccccc4[nH]c23)cc1 | > 363 µM | 245 µM | –
CC1C2Cc3ccc(O)cc3C1(C)CCN2CCC(=O)c1ccccc1 (configuration not stated) | > 200 µM | 27.5 µM | –
CN1C(=O)CC2CCC(=O)N2c2cccnc21 (configuration not stated) | > 200 µM | > 200 µM | –
O=C(O)C1C2OC3C(OC(=O)C31)C2Br (configuration not stated) | > 200 µM | > 200 µM | –
O=C(CN1CCCC1=O)CS(=O)(=O)c1ccccc1 | > 891 µM | > 891 µM | –
O=c1cc(-c2ccccc2)[nH]c(=S)[nH]1 | > 200 µM | > 200 µM | –
CCn1c(-c2ccccc2)cs/c1=N\C(P(=O)(O)O)P(=O)(O)O | > 200 µM | > 200 µM | –
CN(C)c1ccc(/C=C/C(=O)c2ccccc2)cc1 | > 39.8 µM | 14.8 µM | –
O=C(O)c1cc(CC2Cc3cc4c(cc3C2=O)CCC4)cc2c1CCC2 (configuration not stated) | > 200 µM | 53.7 µM | –
CN(C)CCC1(c2ccccc2)C=Cc2ccccc21 (configuration not stated) | > 200 µM | 107 µM | –

Structure (SMILES) | EC50 | IC50 | outcome
CCOC(=O)c1c(-c2ccccc2)nc2c(OC)nccn12 | > 200 µM | 126 µM | –
COc1cc2nc(NCCCCCNC(=O)c3ccco3)nc(N)c2cc1OC | > 575 µM | 35.5 µM | –
O=S1(=O)CCC(OC2CCS(=O)(=O)C2)C1 (configuration not stated) | > 977 µM | > 977 µM | –
Cc1cn(CC2COC(CO)O2)c(=O)[nH]c1=O (configuration not stated) | > 1020 µM | > 1020 µM | –
CC(=O)C(=[N+]=[N-])C(=O)OCCOC(=O)C(=[N+]=[N-])C(C)=O | > 200 µM | > 200 µM | –
NC(=O)C(=O)Cc1nc2ccccc2s1 | > 91.2 µM | > 91.2 µM | –
CCOC(=O)C1C/C(=N\OC(C)=O)c2ccc(OC)c(OC)c2C1 (configuration not stated) | – | – | inactive
CCOC(=O)c1[nH]c(-c2[nH]c(-c3[nH]c(-c4[nH]c(C(=O)OCC)c(C)c4C(=O)OCC)c(C(=O)OCC)c3C)c(C)c2C(=O)OCC)c(C(=O)OCC)c1C | > 200 µM | > 200 µM | –
Nc1ccc(/C=C/c2ccc3ncccc3c2)cc1 | 0.0631 µM | > 200 µM | –
O=C(c1ccco1)C1CC(c2c(O)ccc3ccccc23)=NN1 (configuration not stated) | > 200 µM | 11.5 µM | –
O=c1/c(=N\Nc2ccccc2)c2cccc3ccc4cccc1c4c32 | > 100 µM | > 100 µM | –
Cc1cn(C2CC(N=[N+]=[N-])C(CO[Si](C)(C)C(C)(C)C)O2)c(=O)[nH]c1=O (configuration not stated) | 7.08 µM | 66.1 µM | –
COc1cccc(/C=C/C(=O)C(C)(C)C)c1 | > 24 µM | > 24 µM | –
C=CCN1/C(=C2\SC(=S)N(c3ccc(C)cc3)C2=O)Sc2c1nc[nH]c2=O | > 2.51 µM | > 2.51 µM | –
O=C(CC1(O)C(=O)Nc2ccc(Br)cc21)c1ccc(Cl)cc1 (configuration not stated) | > 93.3 µM | > 93.3 µM | –
N#CC(C(=N/NC(N)=S)/C(=N\NC(N)=S)C(C#N)c1ccccc1)c1ccccc1 (configuration not stated) | > 97.7 µM | 47.9 µM | –
[N-]=[N+]=NC12CC3CC4C5CC(CC41)CC2[C@H]5C3 | > 81.3 µM | > 81.3 µM | –
NCC(O)c1cc(I)c(Oc2ccc(O)cc2)c(I)c1 (configuration not stated) | > 200 µM | 15.5 µM | –
Nc1ncnc2c1ncn2C1CCC(CO)OC1 (configuration not stated) | > 200 µM | > 200 µM | –
O=S(=O)(Nc1cccc(F)c1)c1ccc(F)cc1 | – | – | inactive
C=C1OC(=O)[C@]2([C@@H](/C=C/C)C=CC(=O)[C@H]2O)[C@@H]1O | > 200 µM | > 200 µM | –
CC(=O)OCC1OC(OCCCCCCO)C(OC(C)=O)C(OC(C)=O)C1OC(C)=O (configuration not stated) | > 200 µM | > 200 µM | –

Structure (SMILES) | EC50 | IC50 | outcome
O=C(c1ccccc1)N1OC2C=CC1CC2 (configuration not stated) | > 1150 µM | > 1150 µM | –
COC(=O)c1ccc(CO/N=C(\c2ccccc2)c2ccncc2)cc1 | > 200 µM | 66.1 µM | –
COC(=O)C1=CC2CC1C(S(=O)(=O)c1ccccc1)C2S(=O)(=O)c1ccccc1 (configuration not stated) | > 100 µM | 4.57 µM | –
CCOC(=O)Cc1csc(N=Nc2c(O)[nH]c3ccccc23)n1 | > 200 µM | 110 µM | –
CC(=O)OC1C(O[C@H]2CC[C@]34O[C@]35CC[C@]3(C)C(C6(C)CC[C@@H](C(C)(C)O)O6)[C@@H](O)CC3(C)[C@@H]5CC(OC3OC(CO)C(O)C(O)C3O)C4C2(C)C)OCC(O)C1O (some centres not stated) | 67.6 µM | 302 µM | –
O=c1oc2ccccc2c2c1Sc1ccccc1N2 | > 51.3 µM | > 51.3 µM | –
CN(C)CCNc1ccc2ncnc3c2c1C(=O)c1ccccc1-3 | > 1 µM | 0.219 µM | –
C[C@]12CCC3[C@@H](CC[C@@H]4/C(=N\O)C(=O)/C(=N\O)C[C@]34C)C1C/C(=N\O)C2=O (some centres not stated) | – | – | inactive
CC(Nc1ccc(S(=O)(=O)N=C(N)N)cc1)c1c2ccccc2nc2ccccc12 (configuration not stated) | – | – | inactive
CCCCNC(=S)Nc1nc(C(=O)NNC(=O)c2ccccc2)cs1 | > 200 µM | 11.2 µM | –
O=C(O)c1cccc(S(=O)(=O)NN2C(=O)CSC2c2ccccc2)c1 (configuration not stated) | > 200 µM | > 200 µM | –
CCOC(=O)C1SCCC1(C)O (configuration not stated) | – | – | inactive
C[C@]1(O)CC[C@H]2[C@@H]3CCC4=CC(=O)CC[C@]4(C)[C@@]3(Cl)[C@@H](Cl)C[C@@]21C | > 200 µM | > 200 µM | –
COC(=O)C1C2CC3C(OC(=O)C31)C2I (configuration not stated) | – | – | inactive
Cc1cc(=O)oc2c1c(C)nn2-c1cccc(Cl)c1 | > 95.5 µM | 89.1 µM | –
Cc1cc2c(C)n(Cc3ccccc3Cl)nc2c(C(=O)O)c1C | > 759 µM | 148 µM | –
N#[N+]C1=NC2C(=O)NC=NC2=N1 (configuration not stated) | > 83.2 µM | > 83.2 µM | –
C/C(CC1SCCCS1)=C(/C)CC1SCCCS1 | > 200 µM | > 200 µM | –
CC(=O)/C(=C/c1cccc(F)c1)c1ccccc1 | > 56.2 µM | > 56.2 µM | –
Cc1sc2nc3n(c(=O)c2c1C)N=C(c1ccc([N+](=O)[O-])cc1)CS3 | > 200 µM | > 200 µM | –
O=C1CC(c2ccccc2)=NO1 | > 200 µM | > 200 µM | –
O=C(O)CN(CCN(CC(=O)O)CC(=O)O)CC(=O)O | > 200 µM | > 200 µM | –

Structure (SMILES) | EC50 | IC50 | outcome
O=C1c2ccccc2C(=O)C2C3c4ccccc4C(c4ccccc43)C12 (configuration not stated) | > 15.5 µM | > 15.5 µM | –
O=c1c2cnccc2cc2c3ccccc3ccn12 | > 200 µM | 7.41 µM | –
Nc1ncnc2c1ncn2C1OC2CSCC2(O)C1O (configuration not stated) | > 200 µM | 138 µM | –
CC(=O)NC(CCC(=O)c1ccc(Oc2ccccc2)cc1)(C(=O)O)C(=O)O | > 200 µM | > 200 µM | –
CC(=O)OC(OC(C)=O)c1ccc2ccc3cccc4ccc1c2c34 | > 200 µM | 34.7 µM | –
Nc1ccc(/C=C/c2ccc(NCc3c(O)cc(O)cc3C(=O)O)cc2S(=O)(=O)O)c(S(=O)(=O)O)c1 | 107 µM | > 200 µM | –
COc1ccc(-c2nc3c(nc2-c2ccc(OC)cc2)N(C)S(=O)(=O)N=C3N)cc1 | > 200 µM | 11.2 µM | –
O=C(CCCCCCCCC(=O)N1C(=O)CC(=O)N(c2cccc(Cl)c2)C1=S)N1C(=O)CC(=O)N(c2cccc(Cl)c2)C1=S | > 200 µM | 85.1 µM | –
CCCCC(NC(=O)C1CCCN1C(=O)OCc1ccccc1)C(=O)OCc1ccccc1 (stereo not drawn) (Cbz-Pro-[Nle]-OBn; configuration not given here) | > 41.7 µM | > 41.7 µM | –
O=S(=O)(/C=C/C=C/S(=O)(=O)c1ccccc1)c1ccccc1 | > 2 µM | 0.251 µM | –
C1CCN(CCCSSCCCN2CCCCC2)CC1 | > 200 µM | 91.2 µM | –
COC(=O)c1ccc(/C=C2\Oc3ccccc3C2=O)cc1 | > 200 µM | > 200 µM | –
CCCCCCCCOC1N(C2CC(N=[N+]=[N-])C(CO)O2)C(=O)NC(=O)[C@]1(C)Cl (some centres not stated) | > 200 µM | 37.2 µM | –
COc1ccc(N2C(=O)C3c4[nH]c5ccccc5c4C4CC(C)CC(C)C4C3C2=O)cc1 (configuration not stated) | > 2.45 µM | > 2.45 µM | –
Cc1cc(NS(=O)(=O)c2ccc(NO)cc2)no1 | > 70.8 µM | 15.8 µM | –
CCOC(=O)Cc1nc2sc(C)c(-c3ccccc3)c2c(=O)[nH]1 | > 110 µM | > 110 µM | –
CCCCCCCCCCCCc1ccsc1-c1ccc(-c2ccc(-c3sccc3CCCCCCCCCCCC)s2)s1 | > 25.1 µM | > 25.1 µM | –
O=C1CCCC/C1=C/C=C/c1ccccc1 | > 64.6 µM | > 64.6 µM | –
CCCCc1ccc(Nc2ncc3[nH]cnc3n2)cc1 | > 200 µM | 29.5 µM | –
CCOC(=O)/C(=N\O)C1=CSC2=NNC(C)(C)N12 | > 200 µM | 115 µM | –
CCCSc1nc(COC(=O)NC)c(COC(=O)NC)n1C | > 200 µM | 83.2 µM | –
